Test results as given in PMC10766610, “DCAF1-based PROTACs with activity against clinically validated targets overcoming intrinsic- and acquired-degrader resistance” (Nature Communications, 2024).
Read-outs that look alike come from different tables or passages of the source.

Experiments:
BRD9 = target: T1, BRD9 (Homo sapiens, UniProt Q9H8M2); experiment: BRD9-HiBiT protein abundance luminescence assay in HEK293 cells; details: 2 h
T1 sequence (Q9H8M2 1-597): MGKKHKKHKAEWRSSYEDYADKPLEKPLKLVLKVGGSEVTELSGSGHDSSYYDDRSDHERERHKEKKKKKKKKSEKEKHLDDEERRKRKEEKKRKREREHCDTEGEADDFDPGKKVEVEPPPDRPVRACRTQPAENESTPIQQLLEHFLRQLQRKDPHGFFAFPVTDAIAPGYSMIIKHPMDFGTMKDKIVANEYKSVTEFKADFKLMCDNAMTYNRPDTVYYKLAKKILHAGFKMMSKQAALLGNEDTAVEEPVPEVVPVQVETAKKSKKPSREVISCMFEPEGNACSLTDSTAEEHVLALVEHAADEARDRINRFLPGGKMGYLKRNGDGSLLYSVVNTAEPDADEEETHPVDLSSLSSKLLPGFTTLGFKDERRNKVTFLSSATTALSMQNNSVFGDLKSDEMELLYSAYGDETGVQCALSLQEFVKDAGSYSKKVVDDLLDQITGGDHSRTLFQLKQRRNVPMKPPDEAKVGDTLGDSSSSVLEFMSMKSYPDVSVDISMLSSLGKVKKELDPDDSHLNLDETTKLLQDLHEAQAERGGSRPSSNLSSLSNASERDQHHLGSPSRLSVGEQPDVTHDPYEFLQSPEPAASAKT
Description: HEK293/BRD9-HiBiT pools (PROMEGA # CS3023120) and HEK293/BRD7-HiBiT pools (PROMEGA # CS3023124) were purchased from Promega. We performed clonal selection for HEK293/BRD9-HiBiT cell line using single-cell sorting and screening for HiBiT expression using Nano-Glo HiBiT Lytic Detection System (Promega # N3030). The HEK293/BRD9-HiBiT clone and HEK293/BRD7-HiBiT pool to perform standard HiBiT assays.

TMD8 cells = experiment: Whole proteomics profile, DBt-10 vs (19), TMD8 cells; format: cell-based, human; details: 5 µM DBt-10 vs 5 µM (19), 6 h
Method: HEK293T and TMD8 cells were cultured according to protocol and 3 million cells were plated per sample and recovered for 24 h. The following day, cells were treated with indicated compounds at corresponding concentrations for 6 h. Cells were then harvested and washed 2× with PBS before removing all liquid and snap freezing in liquid nitrogen before sample preparation for proteomics.
TMT-labeled peptides were generated with the iST-NHS kit (PreOmics) and TMT10plex (duplicates per condition) or TMT18plex (triplicates per condition) reagent (Thermo Fisher Scientific). Equal amounts of labeled peptides were pooled and separated on a high pH fractionation system with a water-acetonitrile gradient containing 10 mM ammonium formate, pH 11[88]. Alternating rows of the resulting 72 fractions were pooled into 24 samples, dried and resuspended in water containing 0.1% formic acid.
The LC-MS analysis was carried out on an EASY-nLC 1200 system coupled to an Orbitrap Fusion Lumos Tribrid mass spectrometer (Thermo Fisher Scientific). […]
LC-MS raw files were analyzed with Proteome Discoverer 2.4 (Thermo Fisher Scientific). […] TMT reporter ions of the MS3 spectra were integrated with a 20 ppm tolerance and the reporter ion intensities were used for quantification. […] Protein relative quantification was performed using an in-house developed R (v.3.6) script. […]

ABL1 = target: T2, ABL1 (Homo sapiens, UniProt P00519); experiment: Immunoblot of ABL1 in HEK293T cells; format: cell-based; details: 6 h
T2 construct: host or cells: HEK293T
Method: Whole cell lysates for immunoblotting were prepared by pelleting cells at 4 °C (300 g) for 3 min. Cell pellets were then washed 1x with PBS and resuspended in RIPA lysis buffer (VWR, cat # 97063-270) supplemented with protease (Thermo Scientific, cat # A32955) and phosphatase (Thermo Scientific, cat # A32957) inhibitor tablets. Lysates were clarified at 16,000 × g for 15 min at 4 °C prior to quantification by Lowry assay (Bio-Rad cat # 5000113 and cat # 5000114). Whole-cell lysates were loaded into 4–20% Criterion TGX Precast 18 well gels (Bio-Rad, cat # 5671094) and separated by electrophoreses at 120 V for 1 h. The gels were transferred to a nitrocellulose membrane using the Trans-Blot Turbo (Bio-Rad) for 7 min and then blocked for 1 h at room temperature in Odyssey blocking buffer (LICOR Biosciences, cat # 927-50000). Membranes were probed with the appropriate primary antibodies (diluted 1:1000) overnight at 4 °C in 20% Odyssey blocking buffer in 1x TBST. Membranes were washed three times with 1x TBST (5 min per wash), and then incubated with IRDye goat anti-mouse (LICOR, cat # 926-32210) or goat anti-rabbit (LICOR, cat # 926-32211) secondary antibody diluted 1:10,000 in 20% Odyssey blocking buffer for 1 h at room temperature. After three 5-min washes with 1x TBST, the immunoblots were visualized using the ODYSSEY Infrared Imaging System (LICOR). […]

T2 sequence (P00519 whole entry): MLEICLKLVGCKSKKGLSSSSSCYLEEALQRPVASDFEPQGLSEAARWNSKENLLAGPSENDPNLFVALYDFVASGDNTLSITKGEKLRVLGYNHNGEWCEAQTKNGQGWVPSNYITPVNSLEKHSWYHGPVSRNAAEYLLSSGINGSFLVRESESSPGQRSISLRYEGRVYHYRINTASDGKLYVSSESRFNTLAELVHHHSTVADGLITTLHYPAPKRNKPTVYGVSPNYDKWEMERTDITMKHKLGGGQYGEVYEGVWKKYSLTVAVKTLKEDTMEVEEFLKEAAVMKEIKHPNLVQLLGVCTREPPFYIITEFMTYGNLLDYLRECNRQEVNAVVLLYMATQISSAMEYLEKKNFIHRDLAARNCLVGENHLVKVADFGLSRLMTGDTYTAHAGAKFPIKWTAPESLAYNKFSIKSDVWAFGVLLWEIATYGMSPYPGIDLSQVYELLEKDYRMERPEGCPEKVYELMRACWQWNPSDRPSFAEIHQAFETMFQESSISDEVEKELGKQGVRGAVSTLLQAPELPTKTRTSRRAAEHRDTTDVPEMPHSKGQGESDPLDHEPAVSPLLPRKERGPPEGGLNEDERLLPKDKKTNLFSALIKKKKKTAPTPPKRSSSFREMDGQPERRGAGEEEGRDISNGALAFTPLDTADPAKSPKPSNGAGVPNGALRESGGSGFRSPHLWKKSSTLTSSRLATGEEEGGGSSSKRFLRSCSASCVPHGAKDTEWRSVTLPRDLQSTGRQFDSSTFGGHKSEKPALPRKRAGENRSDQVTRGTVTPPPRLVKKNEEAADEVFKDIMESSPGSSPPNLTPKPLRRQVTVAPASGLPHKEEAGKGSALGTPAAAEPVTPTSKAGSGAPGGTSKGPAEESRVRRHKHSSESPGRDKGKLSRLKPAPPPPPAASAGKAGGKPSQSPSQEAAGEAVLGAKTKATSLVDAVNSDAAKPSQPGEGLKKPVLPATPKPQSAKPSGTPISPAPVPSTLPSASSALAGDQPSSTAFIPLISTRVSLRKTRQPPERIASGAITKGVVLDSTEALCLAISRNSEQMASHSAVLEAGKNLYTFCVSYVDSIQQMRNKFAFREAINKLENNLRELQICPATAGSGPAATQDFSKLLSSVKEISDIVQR

COc1cc(-c2cn(C)c(=O)c3cnccc23)c(OC)cc1CN1CCC(OCCCCCC(=O)N2CCN(c3ccc4c(NCCN)nc(C5(c6ccc(Cl)cc6)CCCCC5)nc4c3)CC2)CC1 [DBr-1]
DC50 (BRD9; read-out: DC50 BRD9-HiBiT, BRD9-HiBiT/CAS9/FF cells): 193 nM | DC50 (BRD9; read-out: DC50 BRD9, HEK293/BRD9-HiBiT cells): 90 nM

Cc1c(NC(=O)N2CC(O)(CC(C)(C)C)C2)cc(F)cc1-c1ncnc2[nH]c(-c3cnn(CC(=O)N4CCC5(CC4)CN(CCNC(=O)CCCC(=O)N4CCN(c6ccc7c(NCCN)nc(C8(c9ccc(Cl)cc9)CCCCC8)nc7c6)CC4)CCO5)c3)cc12 [DBt-10]
only other protein with significantly reduced abundance (proteomics) (TMD8 cells): LIM domain kinase 1 (LIMK1) | strongest reduced protein (proteomics) (TMD8 cells): BTK

Cc1nc(Nc2ncc(C(=O)Nc3c(C)cccc3Cl)s2)cc(N2CCC(OC3CCN(CCCCCCCC(=O)N4CCN(c5ccc6c(NCCN)nc(C7(c8ccc(Cl)cc8)CCCCC7)nc6c5)CC4)CC3)CC2)n1 [DDa-1]
ABL1 protein levels (ABL1): not
